Reference: patent publication US12448410B2, “Derivative of sarsasapogenin, pharmaceutical composition and use thereof” (Phytovent Biopharma, priority 2018, dated 2025)

Experiments:
Type in all cases: cell-based
[1] = test system: A549 lung cancer cells; assay: CTG cell proliferation, in vitro growth inhibition of A549 lung cancer cells; conditions: Homo sapiens, 72 hours, CellTiter-Glo
Method: (§1) Study of CTG Cell Proliferation—Inhibition of In-Vitro Growth of Various Tumor Cells by Sarsasapogenin Derivative
(§2) Tumor cells included: human A549 cells (lung cancer cells) (ATCC, Catalog No. CCL-185), HeLa cells (cervical cancer cells) (ATCC, Catalog No. CCL-2), HepG2 cells (liver cancer cells) (ATCC, Catalog No. HB-8065), A375 cells (melanoma cells) (ATCC, Catalog No. CRL-1619), MCF-7 (breast cancer cell) (ATCC, Catalog No. HTB-22), U87MG (brain glioma cell) (ATCC, Catalog No. HTB-14), LN229 (ATCC, Catalog No. CRL-2611), A172 (ATCC, Catalog No. CRL-1620), KNS-42 (JCRB, Catalog No. IF050356), BE(2)-C (ATCC, Catalog No. CRL-2268), U118MG (ATCC, Catalog No. HTB-15), SW-1088 (ATCC, Catalog No. HTB-12), and SH-SY5Y (CLS, Catalog No. 300154).
(§3) The aforementioned tumor cells were inoculated into clear-bottom white 96-well culture plates (Corning, Catalog No. CLS3903) containing specific medium at 1.8 to 15×10^3 cells per well, and were incubated in an incubator (37° C., 5% CO2) for 24 hours.
(§4) A 10 mM stock solution was prepared by using DMSO (Sigma, Catalog No. D2650) for each compound, diluted with medium to required concentrations (final concentration of DMSO: 0.2%) and added into each well with 2 replicate wells/concentration. The cells were incubated in the incubator at 37° C. and 5% CO2 for 72 hours. Then, 100 μL of CellTiter-Glo® cell activity assay reagent (Promega, Catalog No. G7573) was added into each well and well mixed using a shaker for 10 minutes to induce cytolysis. The 96-well plates were let stand at room temperature for 10 minutes to stabilize the luminous signals. With white bottom membranes attached to the bottoms of the culture plates, the plates were read using EnSpire system. Data were processed by XLfit software to give IC50 values.

[2] = test system: U87MG (brain glioma cell); assay: CTG cell proliferation, brain tumor cells U87MG; conditions: Homo sapiens, U-87 MG, 72 hours, CellTiter-Glo, read-out: Inhibition of in vitro growth of brain tumor cells (IC50)
Method: as §1, §2, §3, §4

[3] = test system: A172; assay: CTG cell proliferation, brain tumor cells A172; conditions: Homo sapiens, A 172; A172, 72 hours, CellTiter-Glo; read-out: Inhibition of in vitro growth of brain tumor cells (IC50)
Method: as §1, §2, §3, §4

[4] = test system: BE(2)-C; assay: CTG cell proliferation, brain tumor cells BE(2)-C; conditions: Homo sapiens, 72 hours, CellTiter-Glo, read-out: Inhibition of in vitro growth of brain tumor cells (IC50)
Method: as §1, §2, §3, §4

[5] = test system: SH-SY5Y; assay: CTG cell proliferation, brain tumor cells SH-SY5Y; conditions: Homo sapiens, 72 hours, CellTiter-Glo, read-out: Inhibition of in vitro growth of brain tumor cells (IC50)
Method: as §1, §2, §3, §4

[6] = test system: U118MG; assay: CTG cell proliferation, brain tumor cells U118MG; conditions: Homo sapiens, U-118-MG, 72 hours, CellTiter-Glo, read-out: Inhibition of in vitro growth of brain tumor cells (IC50)
Method: as §1, §2, §3, §4

[7] = test system: KNS-42; assay: CTG cell proliferation, brain tumor cells KNS-42; conditions: Homo sapiens; KNS-42, 72 hours, CellTiter-Glo; read-out: Inhibition of in vitro growth of brain tumor cells (IC50)
Method: as §1, §2, §3, §4

[8] = test system: SW-1088; assay: CTG cell proliferation, brain tumor cells SW-1088; conditions: Homo sapiens, SW1088; SW-1088, 72 hours, CellTiter-Glo; read-out: Inhibition of in vitro growth of brain tumor cells (IC50)
Method: as §1, §2, §3, §4

[9] = test system: LN229; assay: CTG cell proliferation, brain tumor cells LN229; conditions: Homo sapiens, LN-229; LN229, 72 hours, CellTiter-Glo; read-out: Inhibition of in vitro growth of brain tumor cells (IC50)
Method: as §1, §2, §3, §4

Row | SMILES | inhibition at 1 µM [1] [%] | inhibition at 5 µM [1] [%] | inhibition at 10 µM [1] [%] | IC50 [2] [nM] | IC50 [3] [nM] | IC50 [4] [nM] | IC50 [5] [nM] | IC50 [6] [nM] | IC50 [7] [nM] | IC50 [8] [nM] | IC50 [9] [nM]
1 | C[C@H]1CC[C@@]2(OC1)O[C@H]1C[C@H]3[C@@H]4CC[C@@H]5CC(NC(=O)CC(=O)N6CCN(CCN7CCCC7)CC6)CC[C@]5(C)[C@H]4CC[C@]3(C)[C@H]1[C@@H]2C (stereo partly drawn) [Example 12] | 4.5 | 89.6 | 98.5 | – | – | – | – | – | – | – | –
2 | C[C@H]1CC[C@@]2(OC1)O[C@H]1C[C@H]3[C@@H]4CC[C@@H]5CC(NC(=O)CC(=O)N6CCN(C)CC6)CC[C@]5(C)[C@H]4CC[C@]3(C)[C@H]1[C@@H]2C (stereo partly drawn) [Example 5] | 1.37 | 48.3 | 95.9 | – | – | – | – | – | – | – | –
3 | C[C@H]1CC[C@@]2(OC1)O[C@H]1C[C@H]3[C@@H]4CC[C@@H]5CC(NC(=O)CC(=O)N6CCNCC6)CC[C@]5(C)[C@H]4CC[C@]3(C)[C@H]1[C@@H]2C (stereo partly drawn) [Example 10] | 5.08 | 65.8 | 99.3 | – | – | – | – | – | – | – | –
4 | C[C@H]1CC[C@@]2(OC1)O[C@H]1C[C@H]3[C@@H]4CC[C@@H]5CC(NC(=O)CC(=O)N6CC7CNCC7C6)CC[C@]5(C)[C@H]4CC[C@]3(C)[C@H]1[C@@H]2C (stereo partly drawn) [Example 11] | 3.86 | 57.3 | 97.2 | – | – | – | – | – | – | – | –
5 | C[C@H]1CC[C@@]2(OC1)O[C@H]1C[C@H]3[C@@H]4CC[C@@H]5CC(NC(=O)CCN(C)C)CC[C@]5(C)[C@H]4CC[C@]3(C)[C@H]1[C@@H]2C (stereo partly drawn) [Example 4] | 18.2 | 99 | 100 | 2360 | 3040 | 3310 | 2800 | 1930 | 1920 | 2720 | 2290
6 | C[C@H]1CC[C@@]2(OC1)O[C@H]1C[C@H]3[C@@H]4CC[C@@H]5C[C@@H](NC(=O)CCN6CCN(C)CC6)CC[C@]5(C)[C@H]4CC[C@]3(C)[C@H]1[C@@H]2C [Example 2A] | – | – | – | 1560 | 1660 | 2850 | 2780 | 1070 | 1770 | 660 | 1620
7 | C[C@H]1CC[C@@]2(OC1)O[C@H]1C[C@H]3[C@@H]4CC[C@@H]5CC(NC(=O)CC(=O)NCCCN6CCOCC6)CC[C@]5(C)[C@H]4CC[C@]3(C)[C@H]1[C@@H]2C (stereo partly drawn) [Example 8] | 36.2 | 7.71 | 93.5 | – | – | – | – | – | – | – | –
8 | C[C@H]1CC[C@@]2(OC1)O[C@H]1C[C@H]3[C@@H]4CC[C@@H]5CC(NC(=O)C6CCN(C)CC6)CC[C@]5(C)[C@H]4CC[C@]3(C)[C@H]1[C@@H]2C (stereo partly drawn) [Example 1] | -5.25 | 31.1 | 87.6 | – | – | – | – | – | – | – | –
9 | C[C@H]1CC[C@@]2(OC1)O[C@H]1C[C@H]3[C@@H]4CC[C@@H]5CC(NC(=O)CC(=O)NCC6CCN(C)CC6)CC[C@]5(C)[C@H]4CC[C@]3(C)[C@H]1[C@@H]2C (stereo partly drawn) [Example 7] | -0.84 | 91.7 | 99.9 | – | – | – | – | – | – | – | –
10 | C[C@H]1CC[C@@]2(OC1)O[C@H]1C[C@H]3[C@@H]4CC[C@@H]5CC(NC(=O)CCN6CCN(C)CC6)CC[C@]5(C)[C@H]4CC[C@]3(C)[C@H]1[C@@H]2C (stereo partly drawn) [Example 2] | 95.3 | 98.1 | 100 | – | – | – | – | – | – | – | –
11 | C[C@H]1CC[C@@]2(OC1)O[C@H]1C[C@H]3[C@@H]4CC[C@@H]5CC(NC(=O)CN(C)C)CC[C@]5(C)[C@H]4CC[C@]3(C)[C@H]1[C@@H]2C (stereo partly drawn) [Example 3] | 1 | 86.2 | 99 | – | – | – | – | – | – | – | –
12 | C[C@H]1CC[C@@]2(OC1)O[C@H]1C[C@H]3[C@@H]4CC[C@@H]5C[C@H](NC(=O)CCN6CCN(C)CC6)CC[C@]5(C)[C@H]4CC[C@]3(C)[C@H]1[C@@H]2C [Example 2B] | – | – | – | 4660 | 3840 | 7900 | > 10000 | 5170 | 4780 | 2750 | 5520
13 | C[C@H]1CC[C@@]2(OC1)O[C@H]1C[C@H]3[C@@H]4CC[C@@H]5CC(NC(=O)CC(=O)NC6CCN(C)CC6)CC[C@]5(C)[C@H]4CC[C@]3(C)[C@H]1[C@@H]2C (stereo partly drawn) [Example 6] | -6.51 | 82.2 | 99.8 | – | – | – | – | – | – | – | –
14 | C[C@H]1CC[C@@]2(OC1)O[C@H]1C[C@H]3[C@@H]4CC[C@@H]5CC(NC(=O)CC(=O)N6CCC(N7CCCCC7)CC6)CC[C@]5(C)[C@H]4CC[C@]3(C)[C@H]1[C@@H]2C (stereo partly drawn) [Example 9] | 2.09 | 22.9 | 97.8 | – | – | – | – | – | – | – | –
